Experimental data published in the NIST ThermoML archive (doi:10.1021/je0602824).

Assay: xn = mol fraction of the nth substance listed
Settings: 101 kPa, Liquid

CCn1cc[n+](C)c1.O=S(=O)([O-])C(F)(F)F [1-ethyl-3-methylimidazolium trifluoromethanesulfonate] + O
Settings	mass density [kg/m3]	viscosity [mPa·s]
278.15 K, x2 = 0	1400.52	96
278.15 K, x2 = 0.2286	–	47
278.15 K, x2 = 0.2295	1388.3	–
278.15 K, x2 = 0.431	1372.38	–
278.15 K, x2 = 0.4324	–	28
278.15 K, x2 = 0.6157	1347.34	–
278.15 K, x2 = 0.6159	–	18
278.15 K, x2 = 0.7825	1299.91	–
278.15 K, x2 = 0.783	–	10
278.15 K, x2 = 0.8608	1254.76	–
278.15 K, x2 = 0.9352	–	5
278.15 K, x2 = 0.9353	1171.9	–
278.15 K, x2 = 0.9712	1097.49	–
278.15 K, x2 = 0.9924	1030.35	–
288.15 K, x2 = 0	1392.04	61
288.15 K, x2 = 0.2286	–	32
288.15 K, x2 = 0.2295	1379.81	–
288.15 K, x2 = 0.431	1363.87	–
288.15 K, x2 = 0.4324	–	20
288.15 K, x2 = 0.6157	1338.87	–
288.15 K, x2 = 0.6159	–	13
288.15 K, x2 = 0.7825	1291.74	–
288.15 K, x2 = 0.783	–	7
288.15 K, x2 = 0.8608	1247.16	–
288.15 K, x2 = 0.9352	–	4
288.15 K, x2 = 0.9353	1165.97	–
288.15 K, x2 = 0.9712	1093.64	–
288.15 K, x2 = 0.9924	1028.64	–
298.15 K, x2 = 0	1383.6	41
298.15 K, x2 = 0.2286	–	23
298.15 K, x2 = 0.2295	1371.36	–
298.15 K, x2 = 0.431	1355.39	–
298.15 K, x2 = 0.4324	–	15
298.15 K, x2 = 0.6157	1330.37	–
298.15 K, x2 = 0.6159	–	10
298.15 K, x2 = 0.7825	1283.47	–
298.15 K, x2 = 0.783	–	6
298.15 K, x2 = 0.8608	1239.38	–
298.15 K, x2 = 0.9352	–	3
298.15 K, x2 = 0.9353	1159.65	–
298.15 K, x2 = 0.9712	1089.08	–
298.15 K, x2 = 0.9924	1025.88	–
308.15 K, x2 = 0	1375.22	29
308.15 K, x2 = 0.2286	–	17
308.15 K, x2 = 0.2295	1362.95	–
308.15 K, x2 = 0.431	1346.93	–
308.15 K, x2 = 0.4324	–	12
308.15 K, x2 = 0.6157	1321.86	–
308.15 K, x2 = 0.6159	–	8
308.15 K, x2 = 0.7825	1275.1	–
308.15 K, x2 = 0.783	–	5
308.15 K, x2 = 0.8608	1231.42	–
308.15 K, x2 = 0.9352	–	3
308.15 K, x2 = 0.9353	1152.94	–
308.15 K, x2 = 0.9712	1083.9	–
308.15 K, x2 = 0.9924	1022.24	–
318.15 K, x2 = 0	1366.9	21
318.15 K, x2 = 0.2286	–	13
318.15 K, x2 = 0.2295	1354.59	–
318.15 K, x2 = 0.431	1338.49	–
318.15 K, x2 = 0.4324	–	10
318.15 K, x2 = 0.6157	1313.33	–
318.15 K, x2 = 0.6159	–	7
318.15 K, x2 = 0.7825	1266.62	–
318.15 K, x2 = 0.783	–	4
318.15 K, x2 = 0.8608	1223.27	–
318.15 K, x2 = 0.9352	–	3
318.15 K, x2 = 0.9353	1145.88	–
318.15 K, x2 = 0.9712	1078.18	–
318.15 K, x2 = 0.9924	1017.86	–
328.15 K, x2 = 0	1358.63	16
328.15 K, x2 = 0.2286	–	10
328.15 K, x2 = 0.2295	1346.27	–
328.15 K, x2 = 0.431	1330.07	–
328.15 K, x2 = 0.4324	–	8
328.15 K, x2 = 0.6157	1304.78	–
328.15 K, x2 = 0.6159	–	6
328.15 K, x2 = 0.7825	1258.04	–
328.15 K, x2 = 0.783	–	4
328.15 K, x2 = 0.8608	1214.94	–
328.15 K, x2 = 0.9352	–	3
328.15 K, x2 = 0.9353	1138.49	–
328.15 K, x2 = 0.9712	1071.95	–
328.15 K, x2 = 0.9924	1012.83	–
338.15 K, x2 = 0	1350.43	13
338.15 K, x2 = 0.2286	–	9
338.15 K, x2 = 0.2295	1338.01	–
338.15 K, x2 = 0.431	1321.68	–
338.15 K, x2 = 0.4324	–	7
338.15 K, x2 = 0.6157	1296.19	–
338.15 K, x2 = 0.6159	–	5
338.15 K, x2 = 0.7825	1249.35	–
338.15 K, x2 = 0.783	–	4
338.15 K, x2 = 0.8608	1206.43	–
338.15 K, x2 = 0.9352	–	2
338.15 K, x2 = 0.9353	1130.76	–
338.15 K, x2 = 0.9712	1065.25	–
338.15 K, x2 = 0.9924	1007.21	–
348.15 K, x2 = 0	1342.3	11
348.15 K, x2 = 0.2286	–	7
348.15 K, x2 = 0.2295	1329.77	–
348.15 K, x2 = 0.431	1313.29	–
348.15 K, x2 = 0.4324	–	6
348.15 K, x2 = 0.6157	1287.58	–
348.15 K, x2 = 0.6159	–	5
348.15 K, x2 = 0.7825	1240.55	–
348.15 K, x2 = 0.783	–	3
348.15 K, x2 = 0.8608	1197.74	–
348.15 K, x2 = 0.9352	–	2
348.15 K, x2 = 0.9353	1122.73	–
348.15 K, x2 = 0.9712	1058.13	–
348.15 K, x2 = 0.9924	1001.05	–
